Reference: patent publication US11779015B2, “Pesticide compositions” (FUNDACIÓ CENTRE DE REGULACIÓ GENÒMICA, priority 2017, dated 2023)

Legend:
D. santomea larvae = assay: Fly larva chemotaxis assay; assay type: in vivo; settings: 1% vol in paraffin oil, 5 minutes
Experimental: (§1) Larvae were exposed to 1% vol solution of (E)-2-hexenal or methyl benzoate in paraffin oil loaded onto the lid of a petri dish. Their movement was tracked for 5 minutes. A preference index was quantified as the fraction of time larvae spent in a zone around the odour sources. A population of 15 larvae were used per trial and they were placed in the centre of the petri dish at the start of the experiment. The average distance of the larvae to the odour sources was also quantified over time. The results of this analysis are shown on FIG. 9, for each of the conditions where a VOC of the invention was used. A total of 10 trials were performed for each condition, i.e. for each VOC and fly species, and 30 trials were performed for a control condition, for which only the solvent paraffin oil was applied.
(§2) Behavioural experiments were performed with third instar foraging larvae. A group of approximately 15 larvae per trial was placed in a Petri dish and monitored during 5 minutes for their chemotactic behaviour, as larvae were exposed to an odour gradient in gas phase emanating from the two odour sources on the lid of the Petri dish. […] Larval behaviour was tracked using a video camera and the data derived was then analysed in Matlab (MathWorks) using custom-made programs to calculate additional time-series variables, and to determine the preference index and the distance of larvae to the source.

[1] = system: larvae of the other species of the Drosophila melanogaster species group; assay: Fly larva chemotaxis assay; assay type: in vivo, Drosophila spp.; settings: 1% vol in paraffin oil, 5 minutes
Experimental: as §1, §2

D. suzukii larvae = assay: Survival and development of larvae in pre-infested blueberries; assay type: in vivo, Drosophila suzukii; settings: counted after 12 days
Experimental: To investigate the impact of (E)-2-hexenal on the emergence of D. suzukii, eight ripe, untreated blueberries were placed in the cage 60a together with adult D. suzukii flies for 4 days. All flies were then removed and discarded and half of the pre-infested blueberries was dipped into 10 mL of a 1%, 5% or 10% E-2-hexenal aqueous emulsion (as above), while the other half was dipped in 10 mL deionized water as a control. Survival of D. suzukii larvae was measured by counting the number of adult flies that emerged from the odour-treated blueberries versus the control condition after 12 days.
The percentage of adult fly emergence under the treated and untreated conditions relative to the sum of all flies that emerged under both conditions in each assay was calculated. The results of these experiments are shown on FIG. 6C (1% vol (E)-2-hexenal), FIG. 6D (5% vol. (E)-2-hexenal), and FIG. 6E (10% vol. (E)-2-hexenal).
Eight ripe, untreated blueberries were placed in a Petri dish at the bottom of a cylindrical plastic fly cage together with 20 mixed (10 females, 10 males) adult D. suzukii flies for 4 days. All flies were then removed and discarded and half of the pre-infested blueberries was dipped into 10 mL of a 1%, 5% or 10% (E)-2-hexenal aqueous emulsion, while the other half was dipped in 10 mL deionised water as a control. The blueberries were then left to air dry, then placed in empty fly vials with cotton lids and left at ambient room temperature conditions. Survival of D. suzukii larvae was measured by counting the number of adult flies that emerged from the odour-treated blueberries versus the control condition after 12 days. The assay was repeated 5 times.

| SMILES | larval chemotactic response (D. santomea larvae) | larval chemotactic response [1] | adult fly emergence from pre-infested blueberries versus control (D. suzukii larvae; 1% vol aqueous emulsion dip) | adult fly emergence from pre-infested blueberries versus control (D. suzukii larvae; 5% vol aqueous emulsion dip) | adult fly emergence from pre-infested blueberries versus control (D. suzukii larvae; 10% vol aqueous emulsion dip) |
| --- | --- | --- | --- | --- | --- |
| COC(=O)c1ccccc1 [methyl benzoate, Methyl benzoate] | strongly attractive | – | – | – | – |
| CCC/C=C/C=O [(E)-2-hexenal] | – | attractive chemotactic responses | not statistically significantly (NS) different from the control condition | does not result in any adult fly emergence | does not result in any adult fly emergence |
